Data: patent publication US20080234230A1, “Pharmaceutical Composition for Regulation of Pancreatic Juice Secretion Comprising a LPA Receptor Modulator” (ONO PHARMACEUTICAL CO., LTD., priority 2001, published 2008)
Where no end group is shown, it is not given here. The star is where a group is joined. SO3H = O=S(=O)(O)*

What was measured:
[1] = tested on: cholecystokinin-induced pancreatic juice secretion; assay: Pancreatic juice secreted in rats by stimulation with cholecystokinin (CCK-8) (Example 4); format: in vivo, rat; settings: CCK-8 0.12 μg/kg/h
Description: The pancreatic juice secreted in rats was collected in the same manner as described in Example 1. In order to ascertain the effect of LPA on excessive pancreatic juice secretion by CCK, an experiment was conducted according to a protocol as shown in Table 2. As CCK, CCK-8 (Sigma No. C-2175) was used.
Saline was infused through the cervical vein and the femoral vein 1 hour before administration of the drug, during which time the amount of pancreatic juice secreted was measured in order to ascertain that there was no considerable difference between individual animals in the pre-value to the pancreatic juice secretion in the individual animals. After 1 hour infusion of saline, to the 18:3-LPA group and the 18:3-LPC group, were infused 3 mg/kg/h of 18:3-LPA and 10 mg/kg/h of 18:3-LPC, respectively, through the femoral vein. After lapse of 1 hour, CCK-8 was intravenously infused for stimulation through the cervical vein in order to examine the effect of LPA on the excessive pancreatic juice secretion. To the control group (vehicle) with no stimuli by CCK-8, 0.5% BSA in saline was administered through the cervical vein. On the other hand, saline was infused to the LPA control group (vehicle) through the femoral vein. In other groups, CCK-8 was administered through the cervical vein at a rate of 0.12 μg/kg/h and 1 ml/h. In the 18:3-LPA group and the 18:3-LPC group, 3 mg/kg/h of 18:3-LPA and 10 mg/kg/h of 18:3-LPC, respectively, were infused through the femoral vein. In the control group with no stimuli by CCK-8 and in the 18:3-LPA control group (vehicle), saline was administered through the femoral vein. One hour after the final administration (Admn.2), the volume of pancreatic juice collected was measured.

[2] = tested on: pancreatic juice secretion; assay: Effect of LPA receptor or EDG-2 antagonist on pancreatic juice secretion in rats (Example 7); format: in vivo, rat
Description: Using Compound 1 having the effect as a EDG-2 antagonist was confirmed in Example 5, the effect of LPA on the pancreatic juice secretion was examined.
In rats, (1) 18:3-LPA and (2) saline as a control (vehicle) for 18:3-LPA were respectively infused through the femoral vein, and (3) Compound 1 and (4) 5% bovine serum albumin/10% DMSO/saline as a control (vehicle) for Compound 1 were respectively infused through the cervical vein, at a rate of 0.5 ml/h for 1 hour.
On the other hand, saline was previously infused through the femoral vein and cervical vein (0.5 ml/h), and after one hour the pancreatic juice was collected in order to ascertain that there was no difference in the initial volumes of the secreted pancreatic juice in rats in each group.

[3] = tested on: pancreatic juice secretion; assay: Effect of LPA receptor or EDG-2 agonist on pancreatic juice secretion in rats (Example 6); format: in vivo; settings: rat, intravenous infusion through the cervical vein
Description: Using an LPA receptor or EDG-2 agonist, the effect of LPA on the pancreatic juice secretion was examined. An LPA receptor agonist 18:3-LPA was intravenously infused to a rat through the cervical vein, and the amount of pancreatic juice secreted was measured. In a group to which 18:3-LPA was administered, the pancreatic juice secretion was inhibited in rats.

[4] = tested on: pancreatic juice secretion; assay: Determination of the amount of pancreatic juice secreted in rats (Example 1); format: in vivo, rat
Description: Male rats (8 to 9 week-old) fasting from the morning of the previous day were anesthetized by subcutaneous application of urethane (1.2 g/5 ml/kg) and polyethylene tubes were inserted into the arteria carotis communis and the femoral vein. The abdomen was cut open along the median line and the gastric pylorus was ligated. Then, a polyethylene tube was inserted into the bile duct at the hepatic portal portion, through which the tip of the tube was inserted into the pore opened in the duodenum intestine in order to return bile to the duodenum intestine. The origin of the hepatoapancreatic tube from the duodenum intestine was cut open, into which a tube was inserted in the same way as in the bile duct and led outside the body. Pure pancreatic juice was collected from the tube.
The drug was continuously administered through the femoral vein with saline. On the other hand, a saline containing 18:3-LPA, 18:3-LPC or 0.5% bovine serum albumin (Sigma, A-0281) as control (vehicle) was infused (1 ml/h) through the cervical vein, and pancreatic juice was collected for 1 hour.
The volume of the collected pancreatic juice was measured. In this connection, saline was infused through the cervical vein and the femoral vein 1 hour before administration of the drug, during which time the amount of pancreatic juice secreted was measured in order to ascertain that there was no considerable difference between individual animals in the pre-value to the pancreatic juice secretion in the individual animals.

amylase secretion = assay: Determination of the amount of amylase secreted (Example 2); format: in vivo, rat
Description: The pancreatic juice collected in Example 1 was diluted with Dulbecco's phosphate-buffered saline(−) (PBS(−)) at an appropriate dilution rate, of which the amylase activity was determined with a reagent of a Diacolor AMY Neorate (Ono Pharmaceutical) kit. To 10 μl of an amylase standard solution (Worthington Biochemical, diluted to 100 U/L to 6,400 U/L with PBS(−)) or the collected diluted pancreatic juice was added 50 μl of an enzyme reagent of the kit, and the mixture was incubated at 37° C. for 3 minutes. Then, after addition of 50 μl of a substrate reagent of the kit, the variation (Vmax) of optical density (OD) at 400 nm was monitored at 37° C. for 3 minutes (SPECTRAMAX 250). The amylase activity was calculated from an amylase standard curve to evaluate the effect of the subject substance by means of the secreted amount of the enzyme (U/h) obtained by the enzyme activity (concentration) (U/L) multiplied by the amount of pancreatic juice collected (L/h).

lipase secretion = assay: Determination of the amount of lipase secreted (Example 3); format: in vivo, rat; settings: rats
Description: The pancreatic juice collected in Example 1 was diluted with saline at an appropriate dilution rate and the lipase activity was measured with a reagent contained in Liquitech Lipase Color kit (Roche Diagnostics). Then, 100 μl of a kit R-1 solution was added to 10 μl of a lipase standard solution (Worthington Biochemical; prepared to 1 U/L to 1,000 U/L with saline) or the collected diluted pancreatic juice, and the mixture was incubated at 37° C. for 5 minutes. Then, 60 μl of a kit R-2 solution was added and the variation (Vmax) of optical density (OD) at 570-700 nm was monitored at 37° C. for 3 minutes (SPECTRAMAX 250). The lipase activity of the pancreatic juice was calculated from a lipase standard curve to evaluate the effect of the subject substance by means of the secreted amount of the enzyme (U/h) obtained by the enzyme activity (concentration)(U/L) multiplied by the amount of pancreatic juice collected (L/h).

[5] = 10 mg/kg/h, 1 ml/h, i.v. infusion

## CCK-8: cholecystokinin, CCK-8 (Sigma No. C-2175), used to stimulate pancreatic juice secretion (DY(SO3H)MGWMDF-NH2; UniProt P06307 96-103, looked up)
[1]; 1 ml/h through the cervical vein
  secretion of pancreatic juice (stimulation): markedly increased

## COC(=O)CCSCc1ccc(-c2onc(C)c2NC(=O)OC(C)c2ccccc2Cl)cc1 (stereo not drawn) [Compound 1, methyl 3-({4-[4-({[1-(2-chlorophenyl)ethoxy]carbonyl}amino)-3-methyl-5-isoxazolyl]benzyl}sulfanyl)propanoate]
[2]; Compound 1 administered together with 18:3-LPA (3 mg/kg/h), FIG. 5
  recovery of pancreatic juice secretion from the inhibition by 18:3-LPA: significantly recovered
[2]; Compound 1 alone, 10 mg/kg/h i.v. infusion, after one hour, FIG. 5
  basal (at resting) secretion volume of pancreatic juice vs control group (vehicle): no difference

## CC/C=C\C/C=C\C/C=C\CCCCCCCC(=O)OCC(O)COP(=O)(O)O (stereo not drawn) [18:3-LPA, 1-linolenoyl-lyzophosphatidic acid]
[3]
  pancreatic juice secretion: inhibited
[4]; i.v. infusion 1 ml/h
  dose at which the effect on pancreatic juice secretion reached approximately the maximum: ~3 mg/kg/h
[4]; i.v. infusion 1 ml/h for 1 hr, 18:3-LPA 1, 3, 10 mg/kg/h, FIG. 1
  pancreatic juice secretion: decreased
[4]; i.v. infusion 1 ml/h for 1 hr, 18:3-LPA 1, 3, 10 mg/kg/h, FIG. 1, listed as LPA
  pancreatic juice secretion: Dose-dependent inhibitory effect
Amylase secretion; rats, 1, 3 or 10 mg/kg/h i.v. infusion, FIG. 2
  amount of amylase secreted: reduced
[1]; 3 mg/kg/h intravenous infusion, FIG. 4
  pancreatic juice secretion increased by CCK-8: reduced the increased pancreatic juice secretion approximately to the control level
[2]; 18:3-LPA 3 mg/kg/h i.v. infusion
  basal secretion volume of pancreatic juice: inhibition of the basal secretion volume was observed
Lipase secretion; 3 and 10 mg/kg/h i.v. infusion, FIG. 3
  amount of lipase secreted: reduced significantly

## CC/C=C\C/C=C\C/C=C\CCCCCCCC(=O)OCC(O)COP(=O)([O-])OCC[N+](C)(C)C (stereo not drawn) [18:3-LPC, 1-linolenoyl lisophosphatidylcholine, reference compound]
[4]; [5]
  pancreatic juice secretion: no inhibitory effect
Amylase secretion; rats, 10 mg/kg/h, 1 ml/h, i.v. infusion
  amylase secretion: no inhibitory effect
[1]; 10 mg/kg/h, 1 ml/h, intravenous infusion
  pancreatic juice secretion induced by CCK-8: no inhibitory effect
Lipase secretion; [5]
  lipase secretion: no inhibitory effect
